The nature of the data set: Plasma concentrations of compound 552 in beagle dogs during the CID study. The data set is classed as in vivo. The conditions noted are these: male, dog, iv; for AUC(0-t): read-out: average AUC0-t (converted). As to the method: The test article No. 2 (compound 552) was intravenously infused via an implanted catheter over 45 minutes to all the animals in Group 4 four days before the start of TA1 (irinotecan) treatment and throughout the 28-day study period. […] The daily dosage (i.e. 5.0, 15.0 and 5.0 mg/kg/day for Groups 2 to 4 respectively) was administered by two equal doses (i.e. 2.5, 7.5 and 2.5 mg/kg/occasion for Groups 2 to 4 respectively) which were separate by at least 6 h. Each dose was infused at a dose volume of 10 mL/kg/h. The vehicle for compound 552 was administered to all dogs in Group 5 by following the same dosing procedures and regimen for compound 552 administration for 23 days (from Day 6 to Day 28). The actual volume infused was calculated and adjusted based on the most recent practical body weight of each animal. The syringes/bags were changed at appropriate intervals as necessary and the weights recorded prior to the start and at the end of the infusion.
Body weights were recorded for all animals once prior to group assignment, and approximately one week prior to initiation of treatment. Body weights were recorded for all animals up to 1 day prior to dosing and twice weekly thereafter during the treatment/observation periods, as well as terminally prior to necropsy (fasted). Food consumption was measured daily during the week prior to treatment and throughout the treatment/observation periods. A series of blood samples (approximately 2.0 mL each) were removed from each dog in Groups 2 and 3 after the first (am) infusion on the first day of treatment with compound 552 and after the second (pm) infusion on the last day of treatment with compound 552. (Note: the second (pm) infusion on the first day of treatment with compound 552 was performed after completion of the last blood sampling). For this purpose, each dog was bled by venipuncture and the samples collected into tubes containing the anticoagulant, K2 EDTA. Tubes were placed on wet ice pending processing. On each occasion, samples were collected prior to the start of infusion, 5, 15, 30, 45, 50, 65, 95, 135 minutes, 3 and 6 hours after the start of infusion of compound 552. Following collection, the samples were centrifuged at approximately 1500×g, approximately 4° C., for at least 10 minutes and the resulting plasma recovered and dispensed into two aliquots and stored frozen (at approximately −80° C.) pending shipment.
Plasma concentrations of compound 552 in male beagle dogs receiving low and high intravenous doses of compound 552 as part of the above experiment were determined. Plasma samples were prepared for analysis by solid phase extraction and analyzed by LC-MS/MS. […] The average AUC0-t was similar on the first (78,233 ng·min/mL) and last day (83,047 ng·min/mL) of dosing for the low dose group (2.5 mg/kg/occasion) and was proportionally higher on the first day (246,073 ng·min/mL) of dosing for the high dose group (7.5 mg/kg/occasion).

SMILES strings stand for the structures. Read-outs that look alike come from different tables or passages of the source.

In the case of `CCC[C@@H]1NC(=O)[C@@H](C(C)C)NC(=O)[C@@H](Cc2ccc(O)c(Cl)c2)N[C@@H](C)COc2ccccc2CCCNC1=O` [Compound 552], the Cmax (usually the peak of the concentration-time curve) by setting is: (2.5 mg/kg, 2.5 mg/kg 45-min infusion, first day of treatment) roughly 1500 ng/mL; (2.5 mg/kg, 2.5 mg/kg 45-min infusion, last day of treatment) roughly 1800 ng/mL; (7.5 mg/kg, 7.5 mg/kg 45-min infusion, first day of treatment) roughly 3400 ng/mL; (7.5 mg/kg, 7.5 mg/kg 45-min infusion, last day of treatment) roughly 5000 ng/mL. For the same molecule, the AUC(0-t) is, setting by setting: (2.5 mg/kg, low dose group 2.5 mg/kg/occasion, first day) 1300 ng·h/mL; (2.5 mg/kg, low dose group 2.5 mg/kg/occasion, last day) 1380 ng·h/mL; (7.5 mg/kg, high dose group 7.5 mg/kg/occasion, first day) 4100 ng·h/mL; (7.5 mg/kg, high dose group 7.5 mg/kg/occasion, last day, one animal with particularly high AUC) 6350 ng·h/mL.

(Values after patent US9133235B2, “Macrocyclic antagonists of the motilin receptor for treatment of gastrointestinal dysmotility disorders” (Ocera Therapeutics, Inc., priority 2006, dated 2015).)
